By GI50 is commonly meant the concentration giving 50% growth inhibition. What is called TGI is the concentration giving total growth inhibition. Higher therefore signals less potent growth arrest.

Molecules are shown by their SMILES. “And” between values parts separate entries of the source, which are not always exact repeats. Identical values can stand only once.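 Test compounds were applied to cells in 96-well plates for 48 hours at 5 doses. GI50 is the concentration that inhibits growth by half. TGI is the concentration that stops growth completely.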 Some results are limits rather than exact numbers.

Experimental findings from PubChem BioAssay (NCI) are described below.

Test systems include MDA-MB-468 breast; OVCAR-3 ovarian; 786-0 renal; SF-268 CNS; TK-10 renal; HCT-15 colon; OVCAR-5 ovarian; SW-620 colon; SF-539 CNS; SNB-75 CNS; SK-MEL-28 melanoma; OVCAR-4 ovarian; KM12 colon; NCI-H460 lung; MDA-MB-435; NCI-H522 lung; DU-145 prostate; NCI-H226 lung; A498 renal; UO-31 renal; T-47D breast; ACHN renal; HL-60(TB) leukemia; UACC-62 melanoma; K-562 leukemia; LOX IMVI melanoma; U251 CNS; HCT-116 colon; HOP-92 NSCLC; SN12C renal; CCRF-CEM leukemia; CAKI-1 renal; MCF7 breast; NCI-H23 lung; BT-549 breast; EKVX NSCLC; IGROV1 ovarian; SK-MEL-5 melanoma; COLO 205 colon; RPMI-8226 leukemia; SNB-19 CNS; A549 NSCLC; MDA-MB-231 breast; MALME-3M melanoma; OVCAR-8 ovarian; SK-OV-3 ovarian; HS 578T breast; SF-295 CNS; PC-3 prostate; HCC-2998 colon; UACC-257 melanoma; HT29 colon; M14 melanoma; MOLT-4 leukemia; HOP-62 NSCLC; SR leukemia.

Common to all, as to test: DTP human tumour cell line panel, 48 h

With `CN(C)CCCC1(c2ccc(F)cc2)OCc2cc(-c3csc4ccccc34)ccc21` (configuration not stated), in the assay with MDA-MB-468 breast, the GI50 is 1540 nM and the TGI turned out to be 3120 nM.
As for `Cc1ccc(-c2nc([P+](c3ccccc3)(c3ccccc3)c3ccccc3)c(N3CCOCC3)o2)cc1`, in the assay with MDA-MB-468 breast, the GI50 was 248 nM and the concentration for total growth inhibition (TGI) turned out to be 870 nM.
The like results for `COc1ccc([C@@H]2[C@@H](Oc3ccccc3)C(=O)N2c2cc(OC)c(OC)c(OC)c2)cc1F` were, in that order, 111 nM and greater than 100000 nM.
For the compound `CNS(=O)(=O)Nc1nccc(Cc2c(C)c3ccc(Oc4ncccn4)cc3oc2=O)c1F`, in the assay with MDA-MB-468 breast, the GI50 is 3460 nM and > 5440 nM; the TGI was 82600 nM and > 10000 nM.
As to `CN(C)[C@@H]1C(=O)C(C(=O)NCc2nc3[nH]cnc(=S)c3[nH]2)=C(O)[C@@]2(O)C(=O)C3=C(O)c4c(O)cccc4[C@@](C)(O)[C@H]3C[C@@H]12`, in the assay on MDA-MB-468 breast, the GI50 is 955 nM and the TGI is greater than 100000 nM.
Take `N#C[Se]CCN1C(=O)c2ccccc2C1=O`: in the assay on MDA-MB-468 breast, the GI50 is 2010 nM and the TGI was 6990 nM.
In the same order, the values of `COc1ccc(Cn2c(Br)c3c(c2-c2cc(OC)c(OC)c(OC)c2)CCc2sc(N)nc2-3)cc1` are 3130 nM and 41900 nM.
In the same order, the values of `O=[N+]([O-])c1ccc(N/N=C\c2cc(Br)ccc2O)nc1` are 1710 nM and 4320 nM.
With `Oc1c(Br)cc(Cl)cc1C(c1cc(Cl)cc(Br)c1O)C(Cl)(Cl)Cl`, in the assay on MDA-MB-468 breast, the GI50 was 2200 nM and the TGI turned out to be 7250 nM.
The like results for `CCN(CC)CCn1c2ccc(O)cc2c2sc3cc(OC)ccc3c(=O)c21` were, in that order, 1540 nM and 3000 nM.
The like results for `CC1=C(C(=O)Nc2ccc3[nH]ncc3c2)C(c2ccc(F)cc2)N=C(c2ccc(C(F)(F)F)nc2)N1` (configuration not stated) were, in that order, 5650 nM and 15500 nM.
In the same order, the values of `O=S(=O)(Nc1ccccc1)c1ccc(C2CC3(Cl)C(Cl)=C(Cl)C2(Cl)C3(Cl)Cl)cc1` (configuration not stated) are 2640 nM and 7860 nM.
As to `COc1cccc(C(N)=Nc2ccc(OCCCCCCCCn3cncn3)cc2)c1`, the GI50 in the assay with OVCAR-3 ovarian is 369 nM; in the assay with 786-0 renal it was 812 nM; in the assay with SF-268 CNS, 1990 nM; with TK-10 renal it was 799 nM; in the assay on HCT-15 colon, 330 nM; in the assay on OVCAR-5 ovarian, 493 nM. In addition, the GI50 was 387 nM in the assay with SW-620 colon; 235 nM in the assay with SF-539 CNS; 262 nM in the assay on SNB-75 CNS; 693 nM in the assay on SK-MEL-28 melanoma; 3180 nM in the assay on OVCAR-4 ovarian; 425 nM with KM12 colon. Moreover, the GI50 in the assay on NCI-H460 lung is 356 nM; in the assay on MDA-MB-435, 130 nM; with NCI-H522 lung it was 274 nM; in the assay on DU-145 prostate it was 417 nM; in the assay with NCI-H226 lung, 295 nM; in the assay with A498 renal, 14900 nM. Further, the GI50 with UO-31 renal was 544 nM; in the assay on T-47D breast, 426 nM; in the assay with ACHN renal, 650 nM; in the assay on HL-60(TB) leukemia, 306 nM; in the assay with UACC-62 melanoma it was 435 nM; with K-562 leukemia it was 230 nM. Also, the GI50 with LOX IMVI melanoma is 522 nM; with U251 CNS, 333 nM; with HCT-116 colon, 417 nM; with HOP-92 NSCLC it was 1630 nM; in the assay with SN12C renal, 485 nM; with CCRF-CEM leukemia it was 292 nM. Besides, the GI50 was 473 nM in the assay on CAKI-1 renal; 266 nM in the assay with MCF7 breast; 385 nM in the assay on NCI-H23 lung; 975 nM in the assay with BT-549 breast; 429 nM with EKVX NSCLC; 530 nM with IGROV1 ovarian. Also, the GI50 with SK-MEL-5 melanoma is 286 nM; in the assay with COLO 205 colon, 315 nM; with RPMI-8226 leukemia, 293 nM; in the assay on SNB-19 CNS, 576 nM; in the assay with A549 NSCLC it was 581 nM; in the assay with MDA-MB-231 breast, 385 nM. The GI50 in the assay with MALME-3M melanoma was 310 nM; in the assay on OVCAR-8 ovarian it was 342 nM; with SK-OV-3 ovarian, 540 nM; in the assay with HS 578T breast, 374 nM; in the assay on SF-295 CNS, 320 nM; with PC-3 prostate, 424 nM. Further, the GI50 with HCC-2998 colon is 380 nM; with UACC-257 melanoma it was 2020 nM; in the assay with HT29 colon it was 319 nM; in the assay with M14 melanoma, 324 nM; in the assay on MOLT-4 leukemia, 596 nM; in the assay with HOP-62 NSCLC it was 614 nM. Also, in the assay with SR leukemia, the GI50 was 319 nM. Besides, the TGI with OVCAR-3 ovarian was 25400 nM; in the assay with 786-0 renal it was 26900 nM; in the assay on SF-268 CNS, 42800 nM; in the assay on TK-10 renal, greater than 100000 nM; with HCT-15 colon, 12400 nM; with OVCAR-5 ovarian it was greater than 45600 nM. Moreover, the TGI in the assay with SW-620 colon was greater than 100000 nM; with SF-539 CNS, 585 nM; in the assay on SNB-75 CNS, greater than 45400 nM; in the assay on SK-MEL-28 melanoma it was 24100 nM; with OVCAR-4 ovarian, greater than 100000 nM; in the assay on KM12 colon, greater than 65500 nM. The TGI with NCI-H460 lung was greater than 33500 nM; in the assay with MDA-MB-435, 378 nM; in the assay with NCI-H522 lung, 1290 nM; in the assay with DU-145 prostate, 31500 nM; in the assay with NCI-H226 lung, 2050 nM; with A498 renal it was 59500 nM. Besides, the TGI in the assay with UO-31 renal is 19900 nM; with T-47D breast it was greater than 72400 nM; in the assay with ACHN renal, 39400 nM; in the assay with HL-60(TB) leukemia it was 1080 nM; in the assay with UACC-62 melanoma it was 17200 nM; in the assay with K-562 leukemia, greater than 100000 nM. For the same compound, the TGI in the assay with LOX IMVI melanoma is 11800 nM; with U251 CNS it was 4570 nM; with HCT-116 colon, 17100 nM; in the assay on HOP-92 NSCLC it was 30200 nM; in the assay on SN12C renal, 14300 nM; in the assay on CCRF-CEM leukemia it was 10400 nM. The TGI with CAKI-1 renal is 45400 nM; in the assay on MCF7 breast it was 15000 nM; in the assay with NCI-H23 lung it was 15500 nM; in the assay on BT-549 breast, 22300 nM; with EKVX NSCLC it was greater than 75200 nM; with IGROV1 ovarian, 21000 nM. The TGI with SK-MEL-5 melanoma was 1090 nM; in the assay on COLO 205 colon, 1090 nM; in the assay with RPMI-8226 leukemia it was 4870 nM; with SNB-19 CNS it was greater than 67700 nM; in the assay with A549 NSCLC, greater than 100000 nM; with MDA-MB-231 breast, 4890 nM. The TGI in the assay with MALME-3M melanoma is 17400 nM; with OVCAR-8 ovarian, 2100 nM; with SK-OV-3 ovarian, 49200 nM; in the assay on HS 578T breast, 38900 nM; with SF-295 CNS, 11000 nM; in the assay on PC-3 prostate it was greater than 50300 nM. The TGI is 3520 nM with HCC-2998 colon; 27800 nM in the assay with UACC-257 melanoma; 1420 nM in the assay on HT29 colon; 18900 nM in the assay on M14 melanoma; greater than 100000 nM in the assay with MOLT-4 leukemia; 18500 nM with HOP-62 NSCLC. Further, the TGI with SR leukemia was greater than 56900 nM.
Turning to `Nc1cc(C(F)(F)F)c(-c2nc(N3CCOCC3)nc(N3CCOCC3)n2)cn1`, in the assay on MDA-MB-468 breast, the GI50 is 180 nM and the TGI stood at 897 nM.
In the same order, the values of `O=C(NO)c1ccc(CNc2cccc3nc(C4CC4)n(-c4ccccc4)c(=O)c23)cc1` are 1880 nM and 5160 nM.
The like results for `CC[C@]12C=CCN3CC[C@@]4(c5ccc(OC)cc5N(C)[C@H]4[C@@](O)(C(=O)OC)[C@@H]1OC(=O)CCCN1CCN(CCCC(=O)O[C@@H]4[C@]5(CC)C=CCN6CC[C@@]7(c8ccc(OC)cc8N(C)[C@H]7[C@@]4(O)C(=O)OC)[C@@H]65)CC1)[C@@H]32` were, in that order, 252 nM and 730 nM.
In the same order, the values of `CCOC(=O)C#Cc1c(C(=O)OCC)nnn1[C@@H]1O[C@H](COC)[C@@H](OC)[C@H]1OC` are 2130 nM and 5430 nM.
